Experimental data as given in US4873236A, “Condensed diazepinones, processes for preparing them and pharmaceutical compositions containing these compounds” (Dr. Karl Thomae GmbH, priority 1986, dated 1989).

Experiments:
[1] = target: T1, M1 (rise in blood pressure by McN-A-343) (Rattus norvegicus, UniProt P08482); test: M1/M2 selectivity in the rat: inhibition of McN-A-343 blood pressure increase (M1); format: in vivo, male THOM rats; details: iv, 5 min, i.v., 50% reduction in blood pressure rise by 0.3 mg/kg McN-A-343, read-out: M1 activity (rat) ED50
T1 construct: from tissue
T1 sequence (P08482 1-460): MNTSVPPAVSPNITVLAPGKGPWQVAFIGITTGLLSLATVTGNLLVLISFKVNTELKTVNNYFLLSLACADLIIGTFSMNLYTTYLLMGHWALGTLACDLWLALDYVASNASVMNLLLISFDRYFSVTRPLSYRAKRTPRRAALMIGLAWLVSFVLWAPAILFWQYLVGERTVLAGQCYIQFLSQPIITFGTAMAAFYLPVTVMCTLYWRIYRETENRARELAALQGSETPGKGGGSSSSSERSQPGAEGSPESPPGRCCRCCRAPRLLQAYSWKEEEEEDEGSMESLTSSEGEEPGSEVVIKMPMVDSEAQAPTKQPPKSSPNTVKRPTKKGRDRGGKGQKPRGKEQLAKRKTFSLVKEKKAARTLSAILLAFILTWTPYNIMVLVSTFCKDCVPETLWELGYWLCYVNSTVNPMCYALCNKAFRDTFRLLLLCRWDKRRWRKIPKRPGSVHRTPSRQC

[2] = system: muscarinic receptors, bronchi; test: Receptor bonding test in vivo, bronchi (3H-NMS); design: species or system female rats; details: in vivo binding, i.v., rat, 113 ng/kg 3H-NMS; 30 min
Protocol: (§1) For these experiments, female rats with a body weight of about 200 g were used. Before the start of the test the animals were anaesthetised with a dosage of 1.25 g/kg of urethane. The animals were each given the prescribed dosage of test substance by intravenous injection. After 15 minutes, 113 ng/kg of ^3 H-N-methylscopolamine (^3 H-NMS) were administered by the same route. After another 15 minutes the animals were killed and the heart, bronchi and lachrymal glands were removed. These organs were dissolved in Soluene R and the radioactivity was determined. The measurements were assumed to be total bonding. […] ID50 values were determined for the individual organs using these tests.

[3] = target: T2, muscarinic receptors, ileum (Cavia porcellus, UniProt H0W1Z3); test: Dissociation constants (KB) on ileum, methacholine antagonism; details: guinea pig ileum, 30 min contact, read-out: KB Ileum (dissociation constant)
T2 construct: The ileum was removed and incubated in Krebs-Henseleit solution; from tissue; host or cells: isolated ileum of guinea pig
T2 sequence (H0W1Z3 1-590): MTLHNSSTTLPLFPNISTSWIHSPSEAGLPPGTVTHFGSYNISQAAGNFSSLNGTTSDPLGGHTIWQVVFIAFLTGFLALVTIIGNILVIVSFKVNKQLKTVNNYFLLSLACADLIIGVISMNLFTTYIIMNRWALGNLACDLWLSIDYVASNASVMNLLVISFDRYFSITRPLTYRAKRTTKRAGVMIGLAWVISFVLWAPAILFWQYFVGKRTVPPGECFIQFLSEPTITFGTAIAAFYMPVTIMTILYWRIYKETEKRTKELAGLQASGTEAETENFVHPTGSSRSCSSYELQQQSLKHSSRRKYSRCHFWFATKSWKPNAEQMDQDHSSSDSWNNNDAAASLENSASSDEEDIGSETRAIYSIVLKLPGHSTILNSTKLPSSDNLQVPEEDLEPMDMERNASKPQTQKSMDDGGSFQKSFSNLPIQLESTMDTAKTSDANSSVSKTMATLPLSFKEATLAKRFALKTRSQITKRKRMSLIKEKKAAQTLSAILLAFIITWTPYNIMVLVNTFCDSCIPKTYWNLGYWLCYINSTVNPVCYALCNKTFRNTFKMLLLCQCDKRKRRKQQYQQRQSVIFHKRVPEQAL
Protocol: Dissociation constants (KB values) were determined in vitro on the guinea pig ileum and spontaneously beating atrium. The ileum was removed and incubated in Krebs-Henseleit solution in an organ bath. Contractions were produced by means of increasing concentrations of methacholine (M) so that a full concentration-activity curve could be plotted.

[4] = target: T3, muscarinic receptors, heart (Rattus norvegicus, UniProt P10980); test: Receptor bonding test in vitro, heart (displacement of 3H-N-methylscopolamine); format: binding, Sprague-Dawley rats; details: for IC50: 0.3 nmolar 3H-NMS, 30° C., 45 min, heart
T3 construct: After removal of the heart and submandibular gland; from tissue; host or cells: whole heart of male Sprague-Dawley rats, homogenate
T3 sequence (P10980 1-466): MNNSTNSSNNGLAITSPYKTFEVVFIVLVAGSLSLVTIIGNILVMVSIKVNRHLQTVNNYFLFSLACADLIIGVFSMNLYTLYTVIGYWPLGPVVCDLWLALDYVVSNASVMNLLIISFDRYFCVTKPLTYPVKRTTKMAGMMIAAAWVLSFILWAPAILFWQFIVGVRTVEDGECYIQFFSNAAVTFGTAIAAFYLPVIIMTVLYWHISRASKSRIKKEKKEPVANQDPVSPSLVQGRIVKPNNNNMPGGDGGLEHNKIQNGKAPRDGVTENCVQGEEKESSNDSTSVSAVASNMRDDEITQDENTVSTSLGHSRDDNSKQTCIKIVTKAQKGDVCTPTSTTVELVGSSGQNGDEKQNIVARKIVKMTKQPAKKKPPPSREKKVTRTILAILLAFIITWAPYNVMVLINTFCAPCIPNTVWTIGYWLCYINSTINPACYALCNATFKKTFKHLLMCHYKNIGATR

[5] = target: T4, muscarinic receptors, heart atrium (Rattus norvegicus, UniProt P10980); test: Receptor bonding test in vivo, heart atrium (3H-NMS); design: species or system female rats; details: for potency in the heart (in words): Table V, atrium/ventricle, vs comparison substances; for ED50: iv, 0.5 h, i.v., 113 ng/kg 3H-NMS, read-out: ID50 Heart Atrium
T4 construct: from tissue; host or cells: heart (atrium, ventricle) of female rats, labelled in vivo
T4 sequence (P10980 1-466): T3 sequence (P10980 1-466)
Protocol: as §1

[6] = target: T5, muscarinic receptors, heart ventricle (Rattus norvegicus, UniProt P10980); test: Receptor bonding test in vivo, heart ventricle (3H-NMS); design: species or system female rats; details: iv, 0.5 h, in vivo binding, i.v., 113 ng/kg 3H-NMS, read-out: ID50 Heart Ventricle
T5 construct: the heart, bronchi and lachrymal glands were removed; from tissue; host or cells: heart (atrium, ventricle) of female rats, labelled in vivo
T5 sequence (P10980 1-466): T3 sequence (P10980 1-466)
Protocol: as §1

M2 (vagal bradycardia) = target: T6, M2 (vagal bradycardia) (Rattus norvegicus, UniProt P10980); test: M1/M2 selectivity in the rat: inhibition of vagally stimulated bradycardia (M2); format: in vivo, male THOM rats; details: iv, 5 min, i.v., 50% reduction in vagal bradycardia, read-out: M2 activity (rat) ED50
T6 construct: The bradycardia produced by vagus stimulation; from tissue; host or cells: whole animal (male THOM rats), heart
T6 sequence (P10980 1-466): T3 sequence (P10980 1-466)
Protocol: The method used was described by Hammer and Giachetti (Life Sciences 31, 2991-2998 (1982)). 5 minutes after intravenous injection of increasing doses of the substance, either the right vagus was electrically stimulated (frequency: 25 Hz; pulse width: 2 ms; duration of stimulus: 30 s; number of volts: supramaximal) or 0.3 mg/kg of McN-A-343 was injected intravenously into male THOM rats. The bradycardia produced by vagus stimulation and the increase in blood pressure produced by McN-A-343 were measured.

For `CCCN(CCC)CC1CCCCN1CCNC(=O)N1c2ccccc2C(=O)Nc2cccnc21` (centres unmarked) [Substance A, 5,11-dihydro-11-[[[2-[2-[(dipropylamino)methyl]-piperidin-1-yl]ethyl]amino]carbonyl]-6H-pyrido[2,3-b][1,4]benzodiazepin-6-one], the ED50 [1] was 0.562 mg/kg, the “ID50 Bronchi” value [2] was 0.7 mg/kg and the Kb [3] was 25.7 nM. The IC50 [4] was 20 nM, the “potency in the heart (in words)” value [5] was “decisive improvement in potency compared with substances Y and Y in the heart” and the ED50 ([5]; in vivo binding, rat) was 0.2 mg/kg. For the same compound, the ED50 [6] was 0.15 mg/kg and the ED50 (M2 (vagal bradycardia)) was 0.019 mg/kg.
`CCN(CC)CC1CCCCN1CCNC(=O)N1c2cc(Cl)ccc2C(=O)Nc2cccnc21` (centres unmarked) [Substance C, 9-chloro-11-[[[2-[2-[(diethylamino)methyl]-piperidin-1-yl]ethyl]amino]carbonyl]-5,11-dihydro-6H-pyrido[2,3-b][1,4]benzodiazepin-6-one] was tested, and the ED50 [1] was 0.36 mg/kg, the “ID50 Bronchi” value [2] was 3.0 mg/kg and the Kb [3] was 83.2 nM. The IC50 [4] was 30 nM, the “potency in the heart (in words)” value [5] was “decisive improvement in potency compared with substances Y and Y in the heart” and the ED50 ([5]; in vivo binding, rat) was 0.2 mg/kg. For the same compound, the ED50 [6] was 0.09 mg/kg and the ED50 (M2 (vagal bradycardia)) was 0.058 mg/kg.
`CCN(CC)CC1CCCCN1CCNC(=O)N1c2ccccc2NC(=O)c2csc(C)c21` (centres unmarked) [Substance B, 4-[[[2-[2-[(diethylamino)methyl]-piperidin-1-yl]ethyl]amino]carbonyl]-4,9-dihydro-3-methyl-10H-thieno[3,4-b][1,5]benzodiazepin-10-one] was tested, and the ED50 [1] was 0.033 mg/kg, the “ID50 Bronchi” value [2] was 0.15 mg/kg and the Kb [3] was 3.63 nM. For the same compound, the “Selectivity factor: Ratio IC50 submandibular gland to IC50 heart” value [4] was 5, the IC50 [4] was 3 nM and the “potency in the heart (in words)” value [5] was “decisive improvement in potency compared with substances Y and Y in the heart”. For the same compound, the “Ratio of ID50 lachrymal gland to ID50 atrium” value ([5]; in vivo binding, rat, 30 min) was greater than 40, the ED50 ([5]; in vivo binding, rat) was 0.025 mg/kg and the ED50 [6] was 0.006 mg/kg. It also gave an ED50 (M2 (vagal bradycardia)) of 0.008 mg/kg.
